Molecular target: BRCA1/BARD1 (Homo sapiens, UniProt P38398+Q99728)
Experiment: ReBiL luminescence protein interaction assay, BRCA1/BARD1 negative control
Conditions: dosing above 10 μM, 10% serum

Chain of BRCA1/BARD1 (P38398 whole entry, species assumed): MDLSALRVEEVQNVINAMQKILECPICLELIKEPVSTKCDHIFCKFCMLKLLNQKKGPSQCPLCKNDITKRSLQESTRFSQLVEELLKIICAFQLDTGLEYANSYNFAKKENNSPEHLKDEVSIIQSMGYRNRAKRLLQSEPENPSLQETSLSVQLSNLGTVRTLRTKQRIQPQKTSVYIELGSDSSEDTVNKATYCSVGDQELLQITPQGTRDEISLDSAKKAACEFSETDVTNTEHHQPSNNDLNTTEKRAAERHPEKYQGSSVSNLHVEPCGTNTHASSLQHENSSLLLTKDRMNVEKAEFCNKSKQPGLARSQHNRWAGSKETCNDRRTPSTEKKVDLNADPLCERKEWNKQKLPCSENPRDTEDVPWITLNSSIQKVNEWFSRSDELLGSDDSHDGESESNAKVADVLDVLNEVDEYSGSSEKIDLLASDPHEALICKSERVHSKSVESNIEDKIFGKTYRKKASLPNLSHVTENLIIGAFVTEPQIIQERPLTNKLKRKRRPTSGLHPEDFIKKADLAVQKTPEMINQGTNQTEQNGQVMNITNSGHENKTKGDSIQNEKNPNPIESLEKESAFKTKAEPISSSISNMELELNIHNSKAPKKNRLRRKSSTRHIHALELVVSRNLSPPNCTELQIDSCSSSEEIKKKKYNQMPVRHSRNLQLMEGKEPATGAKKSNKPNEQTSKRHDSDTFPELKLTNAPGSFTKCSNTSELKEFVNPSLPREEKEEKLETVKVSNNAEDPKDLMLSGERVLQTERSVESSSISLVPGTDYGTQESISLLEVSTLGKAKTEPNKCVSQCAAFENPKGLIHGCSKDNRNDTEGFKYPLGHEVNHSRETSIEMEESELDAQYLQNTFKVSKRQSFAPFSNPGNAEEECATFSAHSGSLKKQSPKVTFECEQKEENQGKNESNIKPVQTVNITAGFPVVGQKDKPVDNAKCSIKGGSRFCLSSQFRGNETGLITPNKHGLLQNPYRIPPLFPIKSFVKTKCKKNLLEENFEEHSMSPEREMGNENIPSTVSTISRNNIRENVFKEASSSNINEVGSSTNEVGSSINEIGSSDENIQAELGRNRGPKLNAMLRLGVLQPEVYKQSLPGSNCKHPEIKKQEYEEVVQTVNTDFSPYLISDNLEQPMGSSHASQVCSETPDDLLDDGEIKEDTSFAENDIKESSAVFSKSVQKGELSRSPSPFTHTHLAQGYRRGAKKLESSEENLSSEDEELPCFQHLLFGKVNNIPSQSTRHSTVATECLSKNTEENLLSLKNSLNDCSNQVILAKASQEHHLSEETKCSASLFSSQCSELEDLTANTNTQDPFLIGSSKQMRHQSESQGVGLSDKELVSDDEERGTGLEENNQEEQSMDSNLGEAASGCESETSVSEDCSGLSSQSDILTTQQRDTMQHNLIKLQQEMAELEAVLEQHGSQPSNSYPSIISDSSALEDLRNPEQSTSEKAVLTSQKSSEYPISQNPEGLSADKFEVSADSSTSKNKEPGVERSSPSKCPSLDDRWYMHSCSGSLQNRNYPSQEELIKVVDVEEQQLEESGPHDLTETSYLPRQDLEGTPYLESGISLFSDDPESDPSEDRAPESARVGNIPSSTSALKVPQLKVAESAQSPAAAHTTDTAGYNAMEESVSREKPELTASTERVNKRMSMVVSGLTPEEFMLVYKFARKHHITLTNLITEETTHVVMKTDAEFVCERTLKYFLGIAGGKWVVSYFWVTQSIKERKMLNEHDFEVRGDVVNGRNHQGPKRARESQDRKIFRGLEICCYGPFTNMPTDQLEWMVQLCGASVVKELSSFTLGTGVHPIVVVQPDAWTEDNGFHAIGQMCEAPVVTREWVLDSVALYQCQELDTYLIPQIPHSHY
Chain of BRCA1/BARD1 (Q99728 whole entry, species assumed): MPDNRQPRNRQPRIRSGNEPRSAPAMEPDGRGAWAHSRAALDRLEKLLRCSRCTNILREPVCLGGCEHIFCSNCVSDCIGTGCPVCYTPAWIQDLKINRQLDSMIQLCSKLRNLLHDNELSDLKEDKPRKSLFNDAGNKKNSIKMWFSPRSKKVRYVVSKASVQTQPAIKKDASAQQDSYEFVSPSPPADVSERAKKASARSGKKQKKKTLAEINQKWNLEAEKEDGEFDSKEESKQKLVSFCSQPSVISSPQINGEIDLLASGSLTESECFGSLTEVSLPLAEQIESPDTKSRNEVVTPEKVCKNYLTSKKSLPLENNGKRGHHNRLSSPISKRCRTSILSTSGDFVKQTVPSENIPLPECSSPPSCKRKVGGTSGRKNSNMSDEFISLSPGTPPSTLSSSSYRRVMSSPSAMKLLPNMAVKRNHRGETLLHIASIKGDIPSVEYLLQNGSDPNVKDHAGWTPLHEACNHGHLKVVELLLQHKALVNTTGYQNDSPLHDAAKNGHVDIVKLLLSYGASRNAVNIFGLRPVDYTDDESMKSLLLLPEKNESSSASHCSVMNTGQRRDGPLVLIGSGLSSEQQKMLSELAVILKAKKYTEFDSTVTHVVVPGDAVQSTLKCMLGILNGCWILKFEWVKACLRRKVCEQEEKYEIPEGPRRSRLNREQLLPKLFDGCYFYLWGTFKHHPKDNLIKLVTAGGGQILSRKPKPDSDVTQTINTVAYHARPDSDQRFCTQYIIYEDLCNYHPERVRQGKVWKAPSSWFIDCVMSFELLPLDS

ReBiL signal suppression in BRCA1/BARD1 cell line above 10 μM: nonspecific activity
Structure (SMILES): COc1ccc(C2=N[C@@H](c3ccc(Cl)cc3)[C@@H](c3ccc(Cl)cc3)N2C(=O)N2CCNC(=O)C2)c(OC(C)C)c1 [Nutlin-3a]

Source: paper PMC5386833 (Oncogene, 2016)
